Calls of active or inactive are those of the source.
Key:
[1] = target: ATP-dependent molecular chaperone HSP82 (Candida albicans (strain WO-1) (Yeast), UniProt C4YTQ8); experiment: loss of DOC-induced GRE-beta-galactosidase reporter signal, dose response, Hsp90 inhibitor project, S. cerevisiae, luminescence (AID 2400); type: functional, cell-based;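 note: beta-galactosidase luminescence from glucocorticoid response element reporter as proxy for Hsp90 function; inhibitor potency where signal loss means Hsp90 inhibition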
ATP-dependent molecular chaperone HSP82, sequence (C4YTQ8 whole entry): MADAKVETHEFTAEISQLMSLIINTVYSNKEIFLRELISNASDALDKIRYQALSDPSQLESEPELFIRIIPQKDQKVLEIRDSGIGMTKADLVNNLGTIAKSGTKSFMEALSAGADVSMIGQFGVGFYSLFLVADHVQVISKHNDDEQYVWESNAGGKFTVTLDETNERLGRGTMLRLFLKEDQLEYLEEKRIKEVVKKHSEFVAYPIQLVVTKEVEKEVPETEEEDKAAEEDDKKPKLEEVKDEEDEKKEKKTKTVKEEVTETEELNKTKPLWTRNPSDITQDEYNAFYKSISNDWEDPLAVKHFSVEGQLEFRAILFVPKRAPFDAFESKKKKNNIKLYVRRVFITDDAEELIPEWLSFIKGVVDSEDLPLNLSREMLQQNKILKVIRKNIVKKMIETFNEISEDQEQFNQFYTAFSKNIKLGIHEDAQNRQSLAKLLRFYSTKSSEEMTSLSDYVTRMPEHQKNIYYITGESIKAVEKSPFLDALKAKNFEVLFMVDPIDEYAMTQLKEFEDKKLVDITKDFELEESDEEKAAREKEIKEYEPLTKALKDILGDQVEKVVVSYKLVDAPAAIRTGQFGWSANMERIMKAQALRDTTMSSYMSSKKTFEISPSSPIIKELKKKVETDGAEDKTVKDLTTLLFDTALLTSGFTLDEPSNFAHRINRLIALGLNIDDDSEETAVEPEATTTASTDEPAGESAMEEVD

[2] = target: Heat shock protein HSP 90-alpha (Homo sapiens, UniProt P07900); type: functional, organism-based
[3] = Fluorescence-based cell-based high throughput dose response assay for inhibitors of the interaction of nucleotide-binding oligomerization domain containing 2 (NOD2) and the receptor-interacting serine-threonine kinase 2 (RIPK2).; type: functional; conditions: Homo sapiens
[4] = target: T1, Serine/threonine-protein phosphatase (Candida dubliniensis (strain CD36 / CBS 7987 / NCPF 3949 / NRRLY-17841) (Yeast), UniProt B9W6M3); experiment: calcineurin pathway inhibitors in yeast reporter, dose response, S. cerevisiae, CDRE-lacZ, luminescence, secondary (AID 2388); type: functional, cell-based;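 note: yeast reporter cells carrying a calcineurin-responsive lacZ construct stimulated with calcium chloride; luminescent beta-galactosidase reporter signal in whole cells rather than isolated phosphatase activity; potency for inhibition where a drop in reporter signal means calcineurin blockade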
T1 sequence (B9W6M3 whole entry): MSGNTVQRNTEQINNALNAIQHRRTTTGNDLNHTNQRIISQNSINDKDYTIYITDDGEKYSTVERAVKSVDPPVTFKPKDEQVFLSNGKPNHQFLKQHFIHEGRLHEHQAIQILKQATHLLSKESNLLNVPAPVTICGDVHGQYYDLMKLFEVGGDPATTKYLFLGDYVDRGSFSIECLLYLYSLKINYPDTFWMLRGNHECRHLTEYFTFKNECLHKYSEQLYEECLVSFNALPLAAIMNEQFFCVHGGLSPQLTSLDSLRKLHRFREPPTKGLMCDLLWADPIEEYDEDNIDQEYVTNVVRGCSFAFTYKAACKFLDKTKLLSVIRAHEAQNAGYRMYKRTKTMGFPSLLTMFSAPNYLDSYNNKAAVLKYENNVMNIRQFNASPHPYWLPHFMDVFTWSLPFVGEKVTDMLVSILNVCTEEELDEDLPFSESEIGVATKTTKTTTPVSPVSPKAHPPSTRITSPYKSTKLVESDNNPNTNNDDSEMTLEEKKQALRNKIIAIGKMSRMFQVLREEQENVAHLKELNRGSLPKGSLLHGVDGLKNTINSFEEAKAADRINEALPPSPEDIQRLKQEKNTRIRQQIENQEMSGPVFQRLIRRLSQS

[5] = microbe, parasite or virus in culture; type: functional; conditions: Mycobacterium tuberculosis
[6] = target: Neurotensin receptor type 1 (Homo sapiens, UniProt P30989); type: functional;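 note: Image-based confirmatory dose-response assay measuring agonist activity at NTR1; NTR1-expressing U2OS osteosarcoma cells imaged for beta-arrestin GFP spot formation; agonist potency where compounds increase beta-arrestin recruitment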
Neurotensin receptor type 1, sequence (P30989 whole entry): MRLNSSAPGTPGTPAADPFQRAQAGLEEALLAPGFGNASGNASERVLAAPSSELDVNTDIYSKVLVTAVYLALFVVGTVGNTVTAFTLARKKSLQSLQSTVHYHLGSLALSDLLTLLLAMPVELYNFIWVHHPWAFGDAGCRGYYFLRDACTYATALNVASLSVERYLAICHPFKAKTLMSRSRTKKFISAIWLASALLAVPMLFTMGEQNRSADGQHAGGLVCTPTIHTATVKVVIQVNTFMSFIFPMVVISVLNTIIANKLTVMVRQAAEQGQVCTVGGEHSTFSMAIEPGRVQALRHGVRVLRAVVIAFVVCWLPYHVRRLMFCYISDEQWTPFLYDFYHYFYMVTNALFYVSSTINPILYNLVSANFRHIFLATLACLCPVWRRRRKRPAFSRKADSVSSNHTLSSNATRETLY

[7] = NIH-3T3 fibroblast cytotoxicity, dose response, cytotoxicity control, cell-based, fluorescence, Alamar Blue, secondary assay (AID 2327); type: functional;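 note: NIH-3T3 mouse fibroblasts cultured with fluconazole at 8 µg/mL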
[8] = target: Sphingosine 1-phosphate receptor 1 (Homo sapiens, UniProt P21453); type: functional;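 note: Tango beta-arrestin reporter U2OS cells stimulated with S1P near its EC80; inhibitor potency meaning antagonism of receptor activation by the natural agonist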
Sphingosine 1-phosphate receptor 1, sequence (P21453 whole entry): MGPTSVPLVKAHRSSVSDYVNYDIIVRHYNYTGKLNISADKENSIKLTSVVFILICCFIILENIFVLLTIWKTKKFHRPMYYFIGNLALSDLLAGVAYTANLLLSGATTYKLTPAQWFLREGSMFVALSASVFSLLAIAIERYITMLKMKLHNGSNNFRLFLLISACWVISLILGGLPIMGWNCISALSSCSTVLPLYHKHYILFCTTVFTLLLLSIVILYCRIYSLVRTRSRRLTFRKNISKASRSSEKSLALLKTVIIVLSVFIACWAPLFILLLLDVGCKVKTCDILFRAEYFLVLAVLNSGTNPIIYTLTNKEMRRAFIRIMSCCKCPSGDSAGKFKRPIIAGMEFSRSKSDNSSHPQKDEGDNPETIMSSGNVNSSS

[9] = C. albicans growth with fluconazole, confirmation, fluorescence, retest (AID 2467); type: functional, cell-based
[10] = target: T1, Serine/threonine-protein phosphatase; experiment: Fluorescence Cell-Based Secondary Assay to Identify Inhibitors of Calcineurin. [Related pubchem assays (depositor defined):AID1979, AID2007]; type: functional
[11] = target: T2, Sphingosine 1-phosphate receptor 4 (Homo sapiens, UniProt O95977); experiment: Fluorescence dose response cell-based high throughput screening assay for antagonists of the Sphingosine 1-Phosphate Receptor 4 (S1P4). [Related pubchem assays: 1524 (Confirmation in triplicates.), 1510 (Primary screen.)]; type: functional
T2 sequence (O95977 whole entry): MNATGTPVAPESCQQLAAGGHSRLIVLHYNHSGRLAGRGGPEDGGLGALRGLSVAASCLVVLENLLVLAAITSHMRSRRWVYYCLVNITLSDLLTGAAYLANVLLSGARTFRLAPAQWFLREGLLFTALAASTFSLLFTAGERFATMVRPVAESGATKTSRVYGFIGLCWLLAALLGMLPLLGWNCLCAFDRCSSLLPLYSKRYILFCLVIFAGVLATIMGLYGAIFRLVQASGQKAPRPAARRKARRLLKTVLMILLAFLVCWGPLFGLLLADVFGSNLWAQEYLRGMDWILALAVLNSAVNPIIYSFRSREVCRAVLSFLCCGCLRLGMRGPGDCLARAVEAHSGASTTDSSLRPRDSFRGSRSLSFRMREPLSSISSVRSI

Insulin-degrading enzyme = target: T3, Insulin-degrading enzyme (Homo sapiens, UniProt P14735); experiment: Dose Response: Fluorescence polarization-based cell-based high throughput dose response assay for inhibitors of insulin-degrading enzyme (IDE). [Related pubchem assays: 434962 (Primary screen (IDE inhibitors in singlicate)), 449730 (Counterscreen (Cytotoxicity in triplicate)), 435028 (Confirmation (IDE inhibitors in triplicate)), 434984 (Summary …; type: functional
T3 sequence (P14735 whole entry): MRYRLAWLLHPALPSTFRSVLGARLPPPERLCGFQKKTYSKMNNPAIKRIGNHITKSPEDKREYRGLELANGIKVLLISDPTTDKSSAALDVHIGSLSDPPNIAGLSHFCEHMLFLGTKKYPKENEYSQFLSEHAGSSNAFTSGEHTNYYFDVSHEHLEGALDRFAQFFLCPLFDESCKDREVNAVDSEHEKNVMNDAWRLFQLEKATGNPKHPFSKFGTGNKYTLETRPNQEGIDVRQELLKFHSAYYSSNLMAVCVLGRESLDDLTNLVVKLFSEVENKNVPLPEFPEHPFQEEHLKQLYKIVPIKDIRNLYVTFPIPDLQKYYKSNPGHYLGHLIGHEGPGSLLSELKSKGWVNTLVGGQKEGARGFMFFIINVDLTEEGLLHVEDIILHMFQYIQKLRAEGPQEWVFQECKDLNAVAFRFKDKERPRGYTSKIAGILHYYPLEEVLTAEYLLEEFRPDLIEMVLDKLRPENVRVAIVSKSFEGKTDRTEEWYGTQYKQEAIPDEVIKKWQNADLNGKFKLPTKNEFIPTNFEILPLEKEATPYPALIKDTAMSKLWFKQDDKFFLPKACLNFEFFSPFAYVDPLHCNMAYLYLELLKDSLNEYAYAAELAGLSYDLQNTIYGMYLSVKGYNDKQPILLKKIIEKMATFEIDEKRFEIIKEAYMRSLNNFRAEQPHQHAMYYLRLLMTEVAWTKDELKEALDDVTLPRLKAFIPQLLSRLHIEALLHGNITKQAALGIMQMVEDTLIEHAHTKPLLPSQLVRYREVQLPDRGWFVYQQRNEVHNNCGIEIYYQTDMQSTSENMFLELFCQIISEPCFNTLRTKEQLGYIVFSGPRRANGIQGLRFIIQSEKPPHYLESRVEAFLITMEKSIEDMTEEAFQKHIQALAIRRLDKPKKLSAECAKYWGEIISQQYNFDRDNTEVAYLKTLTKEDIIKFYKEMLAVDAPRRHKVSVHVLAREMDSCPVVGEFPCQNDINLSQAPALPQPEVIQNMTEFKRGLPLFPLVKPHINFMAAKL

NS3 = NS3 (Hepatitis C virus, UniProt A3EZJ3); experiment: PubChem AID 2173; parameters: species or system Hepacivirus hominis
NS3, sequence (A3EZJ3 whole entry): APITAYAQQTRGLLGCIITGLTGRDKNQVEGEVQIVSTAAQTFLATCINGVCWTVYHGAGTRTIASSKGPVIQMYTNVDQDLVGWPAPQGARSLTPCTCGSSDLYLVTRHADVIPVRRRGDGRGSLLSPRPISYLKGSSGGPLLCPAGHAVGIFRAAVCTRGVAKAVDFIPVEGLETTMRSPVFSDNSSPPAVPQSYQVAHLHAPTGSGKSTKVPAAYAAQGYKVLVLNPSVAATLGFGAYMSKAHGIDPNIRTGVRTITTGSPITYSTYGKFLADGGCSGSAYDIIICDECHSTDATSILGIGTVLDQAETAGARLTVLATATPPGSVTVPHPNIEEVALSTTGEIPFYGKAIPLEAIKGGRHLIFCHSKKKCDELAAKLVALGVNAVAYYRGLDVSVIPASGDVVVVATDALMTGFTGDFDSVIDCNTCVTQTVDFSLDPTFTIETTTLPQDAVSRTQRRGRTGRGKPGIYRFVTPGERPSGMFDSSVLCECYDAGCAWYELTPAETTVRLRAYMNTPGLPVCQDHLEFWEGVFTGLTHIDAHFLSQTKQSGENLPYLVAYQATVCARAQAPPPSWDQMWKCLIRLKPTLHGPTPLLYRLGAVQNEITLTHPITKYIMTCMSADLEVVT

[12] = Luminescence Cell-Based Dose Retest to Confirm Inhibitors of Cancer Stem Cells. [Related pubchem assays (depositor defined):AID2717, AID2721]; type: functional; conditions: Homo sapiens
[13] = target: T4, Heat shock factor protein 1 (Mus musculus, UniProt P38532); experiment: HSF1 potentiators in luciferase reporter cells, confirmation, cell-based, NIH3T3, luminescence, dose retest (AID 435004); type: functional;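 note: stress induced by proteasome inhibitor MG132 added 30 min after compound; luciferase reporter driven by HSF1 response element in NIH3T3 cells; actives raise luminescence as potentiators of the MG132 stress response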
T4 sequence (P38532 whole entry): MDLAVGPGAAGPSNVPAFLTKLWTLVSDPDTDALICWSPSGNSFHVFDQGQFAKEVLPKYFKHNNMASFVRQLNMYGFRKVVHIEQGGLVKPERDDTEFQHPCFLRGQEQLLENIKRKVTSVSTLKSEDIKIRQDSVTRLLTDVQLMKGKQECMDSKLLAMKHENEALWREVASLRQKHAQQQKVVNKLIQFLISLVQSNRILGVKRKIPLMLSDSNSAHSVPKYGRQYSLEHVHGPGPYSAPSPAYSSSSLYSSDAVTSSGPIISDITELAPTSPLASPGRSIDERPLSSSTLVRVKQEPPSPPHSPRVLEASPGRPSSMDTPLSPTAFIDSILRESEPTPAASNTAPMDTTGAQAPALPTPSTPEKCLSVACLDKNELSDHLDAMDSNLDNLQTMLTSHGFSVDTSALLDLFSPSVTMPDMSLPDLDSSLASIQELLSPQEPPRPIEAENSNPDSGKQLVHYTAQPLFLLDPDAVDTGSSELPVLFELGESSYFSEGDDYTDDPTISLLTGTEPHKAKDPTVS

[14] = Counterscreen for IDE inhibitors: Luminescence-based cell-based high throughput dose response assay to identify compounds that are cytotoxic to HEK cells. [Related pubchem assays: 434962 (Primary screen (IDE inhibitors in singlicate)), 449730 (Counterscreen (Cytotoxicity in triplicate)), 435028 (Confirmation (IDE inhibitors in triplicate)) …; type: functional; conditions: HEK293
[15] = target: Hepatocyte nuclear factor 4-alpha (Homo sapiens, UniProt P41235); type: functional, cell-based;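 note: biochemical luminescence-based dose-response counterscreen measuring inhibition of HNF4 dimerization, run alongside a screen for blockers of ABHD5–perilipin-5 interaction; split luciferase complementation of HNF4 fusion proteins in cell lysate measuring dimerization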
Hepatocyte nuclear factor 4-alpha, sequence (P41235 whole entry, the tested form may be a part): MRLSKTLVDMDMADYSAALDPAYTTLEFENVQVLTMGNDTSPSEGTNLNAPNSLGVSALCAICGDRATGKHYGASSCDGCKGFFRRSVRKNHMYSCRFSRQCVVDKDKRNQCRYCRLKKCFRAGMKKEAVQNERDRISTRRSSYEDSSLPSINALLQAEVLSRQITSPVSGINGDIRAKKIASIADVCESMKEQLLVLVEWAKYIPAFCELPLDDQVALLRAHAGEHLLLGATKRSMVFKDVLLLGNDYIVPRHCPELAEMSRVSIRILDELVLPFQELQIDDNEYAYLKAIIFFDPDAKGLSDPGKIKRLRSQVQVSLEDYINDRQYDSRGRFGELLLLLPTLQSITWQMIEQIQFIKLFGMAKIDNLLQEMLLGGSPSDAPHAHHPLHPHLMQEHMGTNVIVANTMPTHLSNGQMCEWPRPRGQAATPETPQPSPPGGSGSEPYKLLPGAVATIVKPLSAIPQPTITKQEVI

[16] = target: T5, Mitochondrial peptide methionine sulfoxide reductase (Bos taurus, UniProt P54149); experiment: Absorbance-based biochemical high throughput dose response assay for activators of Methionine sulfoxide reductase A (MsrA).; type: functional
T5 sequence (P54149 whole entry): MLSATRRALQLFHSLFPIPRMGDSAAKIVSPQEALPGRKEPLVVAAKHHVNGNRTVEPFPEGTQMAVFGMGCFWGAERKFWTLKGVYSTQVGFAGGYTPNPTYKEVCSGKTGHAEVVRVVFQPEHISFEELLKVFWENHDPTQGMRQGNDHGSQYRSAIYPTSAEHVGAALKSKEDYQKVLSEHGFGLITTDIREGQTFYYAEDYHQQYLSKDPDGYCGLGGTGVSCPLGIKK

[17] = miR-122 activators in hepatoma reporter cells, dose response, cell-based, Huh7 psiCHECK-miR122, Renilla luciferase, cherry-picked (AID 651956); type: functional;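 note: huh7 hepatoma cells stably carrying a psiCHECK-2 miR-122 sensor plasmid; renilla luciferase signal reporting endogenous miR-122 activity after 48 h compound exposure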

CCc1ccc2c(c1)/C(=C/C(=O)c1cccs1)C(=O)N2
EC50 [1]: 1.25 µM (active) | AC50 [2]: 4.18 µM (active) | IC50 [3]: 4.53 µM (active) | EC50 [4]: > 180 µM (inactive) | CC50 [5]: 7.23 µM (active) | EC50 [6]: 17.7 µM (active) | EC50 [7]: > 150 µM (inactive) | IC50 [8]: 20.9 µM (not active) | EC50 [9]: 6.49 µM (active) | EC50 [10]: 5.99 µM (active) | IC50 [11]: 1.46 µM (active)

Cc1ccc(C(=O)/C=C/c2cc(Br)cc(Br)c2O)o1
IC50 (Insulin-degrading enzyme): 21 µM (not active) | IC50 (NS3): 9.14 µM (active) | AC50 [12]: 3.09 µM (active) | EC50 [13]: 16.8 µM (active) | IC50 [14]: 19.8 µM (not active) | IC50 [15]: 11 µM (inactive)

O=c1[nH]c(=S)[nH]cc1Oc1ccc(Cl)cc1
EC50 [16]: > 104 µM (inactive)

CC(C)C#Cc1ccc2c(c1)O[C@H](CN(C)C(=O)c1ccncc1)[C@H](C)CN([C@H](C)CO)S2(=O)=O
AC50 [17]: 3.04 µM (active)

— ChEMBL document CHEMBL1201862, “PubChem BioAssay data set” (2004)
